Results as given in patent publication US20250325531A1, “TREATMENT OF SYSTOLIC DYSFUNCTION” (MyoKardia, Inc., priority 2024, published 2025).

Experiments:
[1] = tested on: patients with stable HFrEF; experiment: TTE pharmacodynamics in MAD cohorts, patients with stable HFrEF; type: in vivo, human; conditions: plasma concentration group <2000 ng/mL (n = 30); LS mean difference vs placebo
Procedure: During the study, multiple evaluations were performed that included: serial TTE assessments (11-14 TTEs per patient on Days 1, 2, 3, 4, 7, 9, 10 and 11); PK sampling (PK sample collected concomitantly with every post-randomization echocardiogram); ECGs (on Days 2, 3, 4, 7, 9, 10, 11 and 16); troponin (collected concomitantly with every post-randomization ECG); and safety laboratory assessments. Confined patients underwent continuous telemetry. Holter monitoring was performed in all patients at baseline (Days 1-2) and at the end of double-blind treatment (Days 7-9). Vital signs were collected daily.
PD assessment was done by transthoracic echocardiography as described in Example 1 above. TTE evaluations of LVSV (derived from LVOT-VTI), LVEF, LVFS, SET, and other parameters were PD assessments at predetermined time points. The patients were on bed rest for 10 minutes before the TTEs were obtained. […]
The pharmacodynamic effects of Compound I on echocardiographic markers of cardiac structure and function were analyzed by Compound I plasma concentration groups: <2000 ng/mL (lower concentration group), 2000-3500 ng/ml (medium concentration group) and >3500 ng/ml (higher concentration group) (Table 16) and with PK-PD scatterplots (FIGS. 9A-9C). […]

[2] = Food effect on pharmacokinetics, 200 mg as 25 mg tablets, fed vs fasted, healthy volunteers; type: in vivo, human
Source text: This example describes a clinical study for establishing, in healthy volunteers, the effect of a high fat, high caloric meal on the PK profile of Compound I, as compared to administration of the drug in the fasted state. The study also was intended to determine the safety and tolerability after a single oral dose of Compound I in the fed and fasted state in healthy volunteers. The measurements of PK, PD, and other clinical parameters were done as described in Example 1 above.
This study was an open-label, randomized, two-period cross-over study in healthy volunteers aged 18-55 years. Subjects were screened up to 28 days before the first treatment period. Subjects were admitted to the clinical site on Day −1 (the day before dosing) of Period 1. Approximately half of the subjects randomly received a single dose of Compound I on Day 1 of the first treatment period after the ingestion of a high fat, high caloric breakfast, and the remainder were dosed in the fasted state. Any subject with a predose resting HR ≥95 beats per minute (bpm) was considered ineligible and was not treated. Any subjects with an acute gastrointestinal disorder which could impact drug/food absorption (e.g., vomiting, diarrhea) were rescheduled. Subjects were confined to the clinic until Day 4, and discharged after the 72-hour postdose PK and laboratory samples and vital signs were obtained. After a washout between dosing from 7 to 10 days (or, after consultation with the Investigator, up to 21 days after initial dosing if the subject was unable to attend within the 7 to 10-day window), the subject was admitted for Period 2. The sequence of fed/fasted versus fasted/fed periods was randomized. Subjects returned after the second treatment period for a safety follow-up visit on Day 7 (+1 day).
In both treatment periods, Compound I was administered with 240 mL of water. In the fasted state, the subjects fasted for 10 hours before and for 4 hours after the administration of Compound I. Water could have been ingested up to 1 hour before and after 1 hour post dosing. In the fed state, the subjects fasted for 10 hours before and for 4 hours after the ingestion of the meal, but could have ingested water up to 1 hour before and 1 hour after dosing. In the fed state, the subjects started ingesting the high fat, high caloric meal within 30 minutes prior to Compound I administration and finished the meal within 30 minutes. The meal contained approximately 800 to 1000 calories with about 50% of the calories from fat. The meal consisted of approximately 150 calories from protein, 250 calories from carbohydrate, and 500-600 calories from fat. An example of the meal was a breakfast consisting of two eggs fried in butter, two strips of bacon, two slices of buttered toast, 4 ounces of hash brown potatoes, and 8 ounces of whole milk.
Each subject received two oral doses of 200 mg of Compound I formulated as 25 mg tablets (8 tablets) in a randomized, cross-over fashion, once in the fasted state and the other time after the ingestion of a high fat, high caloric breakfast. There was a washout of between 7 and 21 days between the administrations of the two doses. The Compound I drug substance was a crystalline, free-base, synthetic molecule with a molecular weight of 435.4.
Plasma drug concentrations were measured as described in Example 1 above. Blood samples to measure Compound I plasma concentration were collected at various time points, including on Day 1 predose (1 hour prior to dosing) and at 1 (±5 min), 2 (±5 min), 3 (±5 min), 4 (═10 min), 5 (±10 min), 6 (±10 min), 9 (±20 min), 12 (±20 min), 18 (±30 min), 24 (±30 min), 36 (±30 min), 48 (±30 min), and 72 (±30 min) hours postdose on both treatment periods.
To assess the effect of food on the PK of Compound I, the two one-sided t-test procedure was used to construct 90% CI around the geometric mean ratios (fed/fasted) of plasma AUCinf, AUClast, and Cmax. […]

[3] = 200 mg, subjects who completed both periods (N = 9)
[4] = 200 mg, subjects who completed both fasted and fed periods (N = 9)
[5] = single oral 200 mg, Fasted (N = 10)
[6] = single oral 200 mg, Fed (N = 10)

Cn1cc(S(=O)(=O)[C@@](C)(F)C2CCN(C(=O)Nc3ccon3)CC2)c(C(F)F)n1 [Compound I, (R)-4-(1-((3-(difluoromethyl)-1-methyl-1H-pyrazol-4-yl)sulfonyl)-1-fluoroethyl)-N-(isoxazol-3-yl) piperidine-1-carboxamide]
E/e′ (lateral), mean change from baseline (placebo-corrected) [1]: 0.8 | exposure (Cmax) higher in fed vs fasted state ([2]; 200 mg): ~60% | AUClast, Fasted LSGM ([2]; 200 mg, N = 11): 57400 ng·h/mL | Cmax, Fasted LSGM ([2]; 200 mg, N = 11): 2300 ng/mL | Cmax, Fed LSGM ([2]; 200 mg, N = 11): 3640 ng/mL | AUCinf, Geometric Mean Ratio - Fed/Fasted ([2]; 200 mg, N = 11, 90% CI 130.30-182.67): 154.28 % of Reference | AUClast, Geometric Mean Ratio - Fed/Fasted ([2]; 200 mg, N = 11, 90% CI 131.11-180.92): 154.02 % of Reference | Cmax, Geometric Mean Ratio - Fed/Fasted ([2]; 200 mg, N = 11, 90% CI 137.11-182.33): 158.11 % of Reference | Median (range) Tmax ([2]; 200 mg, fed state): 5.5 h | AUC0-t geometric mean ratio (fed/fasted) [2, 3]: 153.20% | AUCinf geometric mean ratio (fed/fasted) [2, 3]: 153.63% | Cmax geometric mean ratio (fed/fasted) [2, 3]: 156.43% | AUCinf, Geometric Mean Ratio - Fed/Fasted [2, 4]: 153.63 % of Reference | AUClast, Fasted LSGM [2, 4]: 59000 ng·h/mL | AUClast, Geometric Mean Ratio - Fed/Fasted [2, 4]: 153.20 % of Reference | Cmax, Fasted LSGM [2, 4]: 2370 ng/mL | Cmax, Fed LSGM [2, 4]: 3700 ng/mL | Cmax, Geometric Mean Ratio - Fed/Fasted [2, 4]: 156.43 % of Reference | MRT, Mean [2, 5]: 22.55 h | MRT, Median [2, 5]: 23.86 h | T1/2, z, Mean [2, 5]: 14.28 h | AUCinf, Median [2, 6]: 93950 ng·h/mL | AUClast, Geometric Mean [2, 6]: 88400 ng·h/mL | AUClast, Median [2, 6]: 89310 ng·h/mL | Cmax Geometric Mean [2, 6]: 3644 ng/mL | T1/2, z, Geometric Mean [2, 6]: 13.56 h
